Here are results for nine compounds from ChEMBL document CHEMBL5465560, “Selectivity Literature for EUbOPEN Chemogenomic Library” (2024).

In experiment [1] the target is Serine/threonine-protein kinase SIK1 (Homo sapiens) (UniProt P57059). The experiment in a line: Selectivity interaction (LanthaScreen Eu Kinase Binding Assay) EUB0001632a SIK1. The conditions noted are these: at 10 µM.
In experiment [2] the target is Mitogen-activated protein kinase 6 (Homo sapiens) (UniProt Q16659). Briefly: Selectivity interaction (KinomeScan (DiscoverX)) EUB0000229b MAPK6. The conditions noted are these: at 10 µM.
The target of experiment [3] is T1, Inhibitor of nuclear factor kappa-B kinase subunit beta (Homo sapiens) (UniProt O14920).
T1 sequence (whole entry): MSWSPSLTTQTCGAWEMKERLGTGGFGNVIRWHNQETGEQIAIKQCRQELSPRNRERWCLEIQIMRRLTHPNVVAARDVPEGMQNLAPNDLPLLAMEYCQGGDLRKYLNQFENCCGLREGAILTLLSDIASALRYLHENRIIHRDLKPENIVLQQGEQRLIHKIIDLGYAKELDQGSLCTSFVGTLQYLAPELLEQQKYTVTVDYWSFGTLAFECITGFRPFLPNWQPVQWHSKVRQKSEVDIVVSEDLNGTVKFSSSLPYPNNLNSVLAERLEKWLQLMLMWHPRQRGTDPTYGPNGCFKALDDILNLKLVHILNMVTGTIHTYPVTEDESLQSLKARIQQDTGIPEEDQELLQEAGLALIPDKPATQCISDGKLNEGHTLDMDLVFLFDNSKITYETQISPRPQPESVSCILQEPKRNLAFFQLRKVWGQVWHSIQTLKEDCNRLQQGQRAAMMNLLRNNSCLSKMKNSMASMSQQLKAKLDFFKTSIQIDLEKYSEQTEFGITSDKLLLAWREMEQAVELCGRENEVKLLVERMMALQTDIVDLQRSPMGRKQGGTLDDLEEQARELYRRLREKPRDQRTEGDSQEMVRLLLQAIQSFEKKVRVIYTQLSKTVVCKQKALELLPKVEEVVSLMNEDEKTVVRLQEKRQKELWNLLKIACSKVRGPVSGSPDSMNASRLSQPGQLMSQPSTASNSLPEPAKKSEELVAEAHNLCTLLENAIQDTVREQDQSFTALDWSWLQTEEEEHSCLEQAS
Briefly: Selectivity interaction (KinomeScan (DiscoverX)) EUB0000655a IKBKB. The conditions noted are these: at 10 µM.

Experiment [4] addresses T2, Cytoplasmic tyrosine-protein kinase BMX (Homo sapiens) (UniProt P51813).
T2 sequence (whole entry): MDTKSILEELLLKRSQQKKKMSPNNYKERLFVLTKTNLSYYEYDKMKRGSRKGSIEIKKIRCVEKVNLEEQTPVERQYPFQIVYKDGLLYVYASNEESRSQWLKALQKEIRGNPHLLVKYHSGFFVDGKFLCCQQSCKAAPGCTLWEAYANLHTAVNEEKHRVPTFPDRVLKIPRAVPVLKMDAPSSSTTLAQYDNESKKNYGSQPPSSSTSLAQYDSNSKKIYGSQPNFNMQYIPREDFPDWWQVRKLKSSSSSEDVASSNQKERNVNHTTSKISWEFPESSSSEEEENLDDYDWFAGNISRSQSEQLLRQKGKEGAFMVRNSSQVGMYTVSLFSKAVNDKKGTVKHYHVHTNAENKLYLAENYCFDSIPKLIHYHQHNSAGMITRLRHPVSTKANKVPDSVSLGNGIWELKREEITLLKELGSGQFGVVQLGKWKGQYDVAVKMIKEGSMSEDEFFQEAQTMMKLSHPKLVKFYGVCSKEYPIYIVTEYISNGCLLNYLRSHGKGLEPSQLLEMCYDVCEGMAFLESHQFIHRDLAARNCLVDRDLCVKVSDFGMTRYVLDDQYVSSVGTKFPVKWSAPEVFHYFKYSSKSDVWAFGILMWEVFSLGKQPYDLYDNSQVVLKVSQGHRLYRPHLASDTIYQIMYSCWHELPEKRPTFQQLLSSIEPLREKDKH
Briefly: Selectivity interaction (KinomeScan (DiscoverX)) EUB0001619a BMX. The conditions noted are these: at 1 µM.

Experiment [5] addresses Serine/threonine-protein kinase 35 (Homo sapiens) (UniProt Q8TDR2). The experiment in a line: Selectivity interaction (KinomeScan (DiscoverX)) EUB0001619a STK35. The conditions noted are these: at 1 µM.
The target of experiment [6] is Epidermal growth factor receptor (Homo sapiens, UniProt P00533). The experiment in a line: Selectivity interaction (Kinase panel (literature)) EUB0001199aCl EGFR. The conditions noted are these: at 1 µM.
Experiment [7] deals with Death-associated protein kinase 3 (Homo sapiens) (UniProt O43293). Briefly: Selectivity interaction (KinomeScan (DiscoverX)) EUB0000092b DAPK3. The conditions noted are these: at 10 µM.
The target in experiment [8] is Mitogen-activated protein kinase 1 (Homo sapiens, UniProt P28482). The experiment in a line: Selectivity interaction (KinomeScan (DiscoverX)) EUB0000092b MAPK1. The conditions noted are these: at 10 µM.
In experiment [9] the target is Cyclin-dependent kinase-like 1 (Homo sapiens) (UniProt Q00532). Briefly: Selectivity interaction (Kinase panel (DSF assay)) EUB0001559a CDKL1. Background: In DSF a fluorescence change marks the thermal transition of the protein.
The target of experiment [10] is T3, Mitogen-activated protein kinase 13 (Homo sapiens) (UniProt O15264).
T3 sequence (whole entry): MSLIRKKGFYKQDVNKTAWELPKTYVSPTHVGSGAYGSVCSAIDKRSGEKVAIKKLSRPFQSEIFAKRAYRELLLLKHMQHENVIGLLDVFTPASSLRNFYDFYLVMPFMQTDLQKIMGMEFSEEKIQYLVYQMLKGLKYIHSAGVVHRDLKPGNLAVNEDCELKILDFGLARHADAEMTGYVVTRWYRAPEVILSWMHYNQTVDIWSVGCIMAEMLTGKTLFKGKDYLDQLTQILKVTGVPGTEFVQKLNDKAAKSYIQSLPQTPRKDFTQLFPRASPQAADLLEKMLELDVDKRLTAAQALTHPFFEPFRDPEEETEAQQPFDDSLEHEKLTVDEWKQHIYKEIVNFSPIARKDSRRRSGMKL
Briefly: Selectivity interaction (KinomeScan (DiscoverX)) EUB0000595a MAPK13. The conditions noted are these: at 10 µM.

The target of experiment [11] is T4, Histone-lysine N-methyltransferase SMYD3 (Homo sapiens) (UniProt Q9H7B4).
T4 sequence (whole entry): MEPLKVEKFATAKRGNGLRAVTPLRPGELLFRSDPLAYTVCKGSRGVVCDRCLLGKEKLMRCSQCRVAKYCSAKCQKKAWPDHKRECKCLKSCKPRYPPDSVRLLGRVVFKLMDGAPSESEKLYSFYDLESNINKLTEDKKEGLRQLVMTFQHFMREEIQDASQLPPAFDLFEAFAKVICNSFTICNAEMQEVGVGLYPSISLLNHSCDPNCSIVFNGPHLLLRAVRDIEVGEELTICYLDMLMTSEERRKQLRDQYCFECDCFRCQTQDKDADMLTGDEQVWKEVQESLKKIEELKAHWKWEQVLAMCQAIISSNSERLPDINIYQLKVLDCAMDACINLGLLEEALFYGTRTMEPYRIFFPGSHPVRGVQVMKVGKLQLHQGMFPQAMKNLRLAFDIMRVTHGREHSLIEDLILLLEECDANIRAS
The experiment in a line: Selectivity interaction (Methyltransferase screen (radiometric assays, panel of 8 PRMTs, 21 protein lysine methyltransferases, 3 DNA methyltransferases, and one RNA methyltransferase)) EUB0000272b SMYD3.

Chain of Epidermal growth factor receptor (P00533 whole entry): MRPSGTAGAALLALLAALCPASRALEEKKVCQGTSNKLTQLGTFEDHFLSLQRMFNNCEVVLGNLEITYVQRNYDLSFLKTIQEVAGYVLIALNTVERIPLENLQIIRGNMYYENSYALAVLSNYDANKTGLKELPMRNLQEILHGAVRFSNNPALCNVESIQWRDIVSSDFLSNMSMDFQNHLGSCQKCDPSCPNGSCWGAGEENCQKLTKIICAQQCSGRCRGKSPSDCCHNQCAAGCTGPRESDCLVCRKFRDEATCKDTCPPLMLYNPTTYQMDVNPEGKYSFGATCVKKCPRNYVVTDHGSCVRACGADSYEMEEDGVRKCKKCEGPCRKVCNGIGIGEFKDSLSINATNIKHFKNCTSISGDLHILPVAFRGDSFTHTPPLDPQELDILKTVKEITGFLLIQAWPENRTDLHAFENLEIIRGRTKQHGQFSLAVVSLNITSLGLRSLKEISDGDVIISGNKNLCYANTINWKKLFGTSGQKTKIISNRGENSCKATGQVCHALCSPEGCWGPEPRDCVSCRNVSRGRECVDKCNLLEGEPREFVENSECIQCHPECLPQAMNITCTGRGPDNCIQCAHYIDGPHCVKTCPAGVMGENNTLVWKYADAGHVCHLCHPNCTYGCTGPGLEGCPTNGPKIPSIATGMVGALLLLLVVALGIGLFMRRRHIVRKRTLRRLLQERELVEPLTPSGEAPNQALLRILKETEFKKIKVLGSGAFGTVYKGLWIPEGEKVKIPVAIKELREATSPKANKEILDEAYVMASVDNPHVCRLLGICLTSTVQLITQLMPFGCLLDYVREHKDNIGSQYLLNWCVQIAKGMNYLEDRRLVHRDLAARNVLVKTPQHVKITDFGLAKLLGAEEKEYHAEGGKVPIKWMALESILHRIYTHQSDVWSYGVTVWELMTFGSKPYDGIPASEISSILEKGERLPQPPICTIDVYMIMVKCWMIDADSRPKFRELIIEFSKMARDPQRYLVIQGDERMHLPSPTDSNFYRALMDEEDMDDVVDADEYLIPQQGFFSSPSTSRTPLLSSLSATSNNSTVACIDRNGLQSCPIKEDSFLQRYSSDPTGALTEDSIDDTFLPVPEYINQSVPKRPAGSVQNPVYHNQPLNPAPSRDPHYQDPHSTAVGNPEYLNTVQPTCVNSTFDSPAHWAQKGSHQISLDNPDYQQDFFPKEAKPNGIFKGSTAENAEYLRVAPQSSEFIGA
Chain of Mitogen-activated protein kinase 1 (P28482 whole entry): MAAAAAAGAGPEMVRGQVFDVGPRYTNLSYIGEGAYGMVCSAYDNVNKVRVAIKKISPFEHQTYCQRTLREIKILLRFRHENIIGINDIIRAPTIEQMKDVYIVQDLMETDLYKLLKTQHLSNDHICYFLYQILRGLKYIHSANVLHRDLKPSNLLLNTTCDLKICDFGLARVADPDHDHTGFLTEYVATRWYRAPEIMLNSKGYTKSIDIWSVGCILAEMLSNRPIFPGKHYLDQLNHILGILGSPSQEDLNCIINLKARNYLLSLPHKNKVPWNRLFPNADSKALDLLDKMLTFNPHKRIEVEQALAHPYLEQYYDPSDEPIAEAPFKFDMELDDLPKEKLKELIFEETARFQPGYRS
Chain of Serine/threonine-protein kinase 35 (Homo sapiens) (Q8TDR2 whole entry): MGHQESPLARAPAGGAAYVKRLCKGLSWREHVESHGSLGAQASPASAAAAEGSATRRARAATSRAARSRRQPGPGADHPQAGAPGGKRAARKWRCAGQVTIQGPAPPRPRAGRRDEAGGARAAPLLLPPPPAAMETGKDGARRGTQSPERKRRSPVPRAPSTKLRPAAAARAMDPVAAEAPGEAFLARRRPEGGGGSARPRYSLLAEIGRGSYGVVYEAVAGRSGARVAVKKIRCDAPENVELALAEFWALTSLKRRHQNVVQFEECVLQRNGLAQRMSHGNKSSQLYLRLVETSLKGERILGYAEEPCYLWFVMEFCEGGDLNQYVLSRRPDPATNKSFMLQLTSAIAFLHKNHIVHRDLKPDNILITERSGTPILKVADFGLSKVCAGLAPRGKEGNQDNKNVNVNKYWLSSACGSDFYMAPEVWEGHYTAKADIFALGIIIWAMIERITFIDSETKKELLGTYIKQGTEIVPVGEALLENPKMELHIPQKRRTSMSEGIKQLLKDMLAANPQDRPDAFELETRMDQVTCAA
Chain of Cyclin-dependent kinase-like 1 (Homo sapiens) (Q00532 whole entry): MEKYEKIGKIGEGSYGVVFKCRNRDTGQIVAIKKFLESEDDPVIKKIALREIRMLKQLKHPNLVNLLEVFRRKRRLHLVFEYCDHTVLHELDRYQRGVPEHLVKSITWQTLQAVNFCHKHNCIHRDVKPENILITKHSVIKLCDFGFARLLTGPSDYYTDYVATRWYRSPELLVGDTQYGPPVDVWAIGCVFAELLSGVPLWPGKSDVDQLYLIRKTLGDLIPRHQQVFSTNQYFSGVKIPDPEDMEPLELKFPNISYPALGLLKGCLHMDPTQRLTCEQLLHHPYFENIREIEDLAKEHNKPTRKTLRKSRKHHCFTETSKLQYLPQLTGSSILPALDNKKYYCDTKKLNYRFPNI
Chain of Mitogen-activated protein kinase 6 (Homo sapiens) (Q16659 whole entry): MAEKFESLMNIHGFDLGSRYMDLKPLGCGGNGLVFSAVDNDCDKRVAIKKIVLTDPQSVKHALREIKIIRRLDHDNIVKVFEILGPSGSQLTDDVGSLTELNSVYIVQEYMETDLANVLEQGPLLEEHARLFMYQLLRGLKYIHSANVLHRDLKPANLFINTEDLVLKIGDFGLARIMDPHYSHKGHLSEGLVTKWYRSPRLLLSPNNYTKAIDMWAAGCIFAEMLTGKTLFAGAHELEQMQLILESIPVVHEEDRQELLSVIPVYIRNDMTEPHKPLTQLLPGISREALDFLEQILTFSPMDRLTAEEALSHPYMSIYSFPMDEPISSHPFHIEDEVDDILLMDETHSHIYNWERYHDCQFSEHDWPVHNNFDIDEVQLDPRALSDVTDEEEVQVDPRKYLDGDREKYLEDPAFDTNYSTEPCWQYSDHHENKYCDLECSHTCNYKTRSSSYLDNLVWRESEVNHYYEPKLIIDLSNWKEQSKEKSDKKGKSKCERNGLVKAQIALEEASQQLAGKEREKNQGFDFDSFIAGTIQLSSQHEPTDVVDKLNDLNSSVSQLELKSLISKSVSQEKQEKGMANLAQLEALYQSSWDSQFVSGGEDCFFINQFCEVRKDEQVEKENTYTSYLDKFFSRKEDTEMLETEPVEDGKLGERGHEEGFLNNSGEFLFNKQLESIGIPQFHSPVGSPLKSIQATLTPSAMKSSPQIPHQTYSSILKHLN
Chain of Serine/threonine-protein kinase SIK1 (Homo sapiens) (P57059 whole entry): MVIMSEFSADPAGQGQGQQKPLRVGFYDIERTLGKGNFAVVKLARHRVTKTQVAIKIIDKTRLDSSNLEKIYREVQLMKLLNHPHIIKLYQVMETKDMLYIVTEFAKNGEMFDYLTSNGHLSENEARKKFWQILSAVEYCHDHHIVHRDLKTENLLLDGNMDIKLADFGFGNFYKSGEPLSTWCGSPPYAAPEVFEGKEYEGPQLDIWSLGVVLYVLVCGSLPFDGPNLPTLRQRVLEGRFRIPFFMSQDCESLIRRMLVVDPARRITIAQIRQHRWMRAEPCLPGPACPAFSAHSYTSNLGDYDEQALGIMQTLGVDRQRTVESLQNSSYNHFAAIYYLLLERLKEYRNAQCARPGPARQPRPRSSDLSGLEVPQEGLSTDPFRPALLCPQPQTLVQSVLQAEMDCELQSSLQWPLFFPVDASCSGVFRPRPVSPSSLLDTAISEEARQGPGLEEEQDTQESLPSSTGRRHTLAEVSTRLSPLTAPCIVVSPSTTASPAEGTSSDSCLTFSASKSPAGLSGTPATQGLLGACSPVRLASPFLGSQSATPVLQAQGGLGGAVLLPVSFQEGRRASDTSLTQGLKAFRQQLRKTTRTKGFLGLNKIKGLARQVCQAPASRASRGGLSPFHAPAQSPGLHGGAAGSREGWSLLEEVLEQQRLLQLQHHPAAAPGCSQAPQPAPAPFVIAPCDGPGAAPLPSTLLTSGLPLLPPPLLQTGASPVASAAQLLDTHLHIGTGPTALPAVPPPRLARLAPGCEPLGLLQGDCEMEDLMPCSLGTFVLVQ
Chain of Death-associated protein kinase 3 (Homo sapiens) (O43293 whole entry, looked up): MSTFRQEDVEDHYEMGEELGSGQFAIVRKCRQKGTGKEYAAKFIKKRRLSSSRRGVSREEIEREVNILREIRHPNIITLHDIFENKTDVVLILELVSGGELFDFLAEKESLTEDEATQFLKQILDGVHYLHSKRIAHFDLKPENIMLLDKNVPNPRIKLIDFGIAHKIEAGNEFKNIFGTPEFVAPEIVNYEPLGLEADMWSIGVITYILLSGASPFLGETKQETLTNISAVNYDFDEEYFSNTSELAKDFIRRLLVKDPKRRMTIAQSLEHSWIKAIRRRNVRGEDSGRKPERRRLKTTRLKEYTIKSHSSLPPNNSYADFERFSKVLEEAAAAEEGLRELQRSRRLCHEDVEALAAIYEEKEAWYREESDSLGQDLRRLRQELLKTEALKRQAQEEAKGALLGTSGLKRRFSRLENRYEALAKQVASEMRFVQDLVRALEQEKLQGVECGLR

`Cn1cc(-n2cnc3c(NCc4nc5cc(Cl)c(Cl)cc5[nH]4)nc(N4CCOCC4)nc32)cn1`: the % of inhibition in experiment [1] is -0.976%.

As to `COc1cc(N(C)c2ccnc3ccc(C(F)(F)F)cc23)cc(OC)c1OC`, the % binding in experiment [2] was 100%.

In experiment [3], `CN(C)CCOc1ccc(-c2nc(-c3ccncc3)c(-c3ccc4c(c3)CC/C4=N\O)[nH]2)cc1` came in with a % of control of 100%.

With `N#Cc1cccc(-c2c[nH]c3ncnc(N4CCOCC4)c23)c1`, the % of control in experiment [4] worked out at 97%; in experiment [5] it was 62%.

With `CN1Cc2nccc(-c3cn(C)nc3-c3ccc(F)cc3)c2C1=O`, in experiment [6], the % of inhibition is 8%.

On to `CCC(=O)N1CCN(c2ccc(-n3c(=O)ccc4cnc5ccc(-c6cnc7ccccc7c6)cc5c43)cc2C(F)(F)F)CC1`, for which the % of control amounted to 82% in [7] and 100% in experiment [8].

For the compound `CN(C(=O)c1cnn2cccnc12)c1cc2c(cc1N1CCOCC1)C(=O)N(C[C@@H](F)C(C)(C)O)C2`, the dTM in experiment [9] was found to be 1.2 K.

Take `COCC(=O)NC/C=C/c1ccc2ncnc(Nc3ccc(Oc4ccc(C)nc4)c(C)c3)c2c1` [CP-724714]: the % of control in [10] came out at 100%.

Turning to `Cc1cc(C)cc([C@H]2c3cc(C)ccc3NC(=O)CN2C(=O)c2ccc(Br)s2)c1`, the % of activity was 97.3% in experiment [11] (at 1 µM) and 102% in experiment [11] (at 10 µM).
